A short description of this assay: Inhibition of acetyl-coenzyme A carboxylase. The note with it: read-out: I50.

Take `C=CCO/N=C(\CCC)C1=C(O)N2CCCCC2C1=O` (stereo not drawn): the IC50 came to 80 µM. The same measure for `O=C1C(c2ccc(Cl)cc2Cl)=C(O)N2CCCCC12` (stereo not drawn): 15 µM; for `CCO/N=C(\CC)C1=C(O)CC(c2c(C)cc(C)cc2C)CC1=O` (stereo not drawn) [TRALKOXYDIM]: 1 µM.

For the origin of these results see ChEMBL document CHEMBL3046341, “Synthesis of an indolizidinedione oxime inhibitor of acetyl-coenzyme a carboxylase (ACCase)” (Bioorg Med Chem Lett, 1994).
